Laboratory results from ChEMBL document CHEMBL1132113, “Inhibitors of efflux pumps in Pseudomonas aeruginosa potentiate the activity of the fluoroquinolone antibacterial levofloxacin” (1999).
Values after ≈ are worked out from the molar mass of the structure shown. Square brackets hold non-standard residues; d marks the D form. Peptide text beside a SMILES is read from it. * marks the point of attachment. Orn = NCCC[C@H](N)C(=O)O; βNA = c1ccc2cc(N*)ccc2c1

Assays:
[1] = tested on: Pseudomonas aeruginosa; assay: Minimum Inhibitory concentration required to reduce the MIC of levofloxacin by 8-fold against PAM 1032; format: functional
[2] = tested on: Pseudomonas aeruginosa; assay: (§1) Volume of synergy by MacSynergy II 3-D analysis.; format: functional
[3] = tested on: Pseudomonas aeruginosa; assay: Minimum Inhibitory concentration required to inhibit the growth of Pseudomonas aeruginosa (strain PAM 1032).; format: functional
[4] = tested on: Pseudomonas aeruginosa; assay: Minimum inhibitory concentration of Levofloxacin in presence at a concentration of 1.25 ug/mL against PAM 1034; format: functional
[5] = tested on: Pseudomonas aeruginosa; assay: Minimum inhibitory concentration of Levofloxacin in presence at a concentration of 0 ug/mL against PAM 1034; format: functional
[6] = tested on: Pseudomonas aeruginosa; assay: Minimum inhibitory concentration of Levofloxacin in presence at a concentration of 2.5 ug/mL against PAM 1032; format: functional
[7] = tested on: Pseudomonas aeruginosa; assay: Minimum inhibitory concentration of Levofloxacin in presence at a concentration of 50 ug/mL against PAM 1033; format: functional
[8] = tested on: Pseudomonas aeruginosa; assay: Minimum inhibitory concentration of Levofloxacin in presence at a concentration of 1.25 ug/mL against PAM 1032; format: functional
[9] = tested on: Pseudomonas aeruginosa; assay: Minimum inhibitory concentration of Levofloxacin in presence at a concentration of 0 ug/mL against PAM 1033; format: functional
[10] = tested on: Pseudomonas aeruginosa; assay: Minimum inhibitory concentration of Levofloxacin in presence at a concentration of 40 ug/mL against PAM 1034; format: functional
[11] = tested on: Pseudomonas aeruginosa; assay: Minimum inhibitory concentration of Levofloxacin in presence at a concentration of 2.50 ug/mL against PAM 1033; format: functional
[12] = tested on: Pseudomonas aeruginosa; assay: Minimum inhibitory concentration of Levofloxacin in presence at a concentration of 1.25 ug/mL against PAM 1033; format: functional
[13] = tested on: Pseudomonas aeruginosa; assay: Minimum inhibitory concentration of Levofloxacin in presence at a concentration of 10 ug/mL against PAM 1034; format: functional
[14] = tested on: Pseudomonas aeruginosa; assay: Minimum inhibitory concentration of Levofloxacin in presence at a concentration of 40 ug/mL against PAM 1032; format: functional
[15] = tested on: Pseudomonas aeruginosa; assay: Minimum inhibitory concentration of Levofloxacin in presence at a concentration of 20 ug/mL against PAM 1034; format: functional
[16] = tested on: Pseudomonas aeruginosa; assay: Minimum Inhibitory concentration required to inhibit the growth of Pseudomonas aeruginosa (strain PAM 1032); format: functional
[17] = tested on: Pseudomonas aeruginosa; assay: Minimum inhibitory concentration of Levofloxacin in presence at a concentration of 20 ug/mL against PAM 1032; format: functional
[18] = tested on: Pseudomonas aeruginosa; assay: Minimum Inhibitory concentration required to reduce the MIC of levofloxacin by 8-fold against PAM 1034; format: functional
[19] = tested on: Pseudomonas aeruginosa; assay: Minimum Inhibitory concentration required to reduce the MIC of levofloxacin by 8-fold against PAM 1033; format: functional
[20] = tested on: Pseudomonas aeruginosa; assay: Minimum inhibitory concentration of Levofloxacin in presence at a concentration of 0 ug/mL against PAM 1032; format: functional
[21] = tested on: Pseudomonas aeruginosa; assay: Minimum inhibitory concentration of Levofloxacin in presence at a concentration of 40 ug/mL against PAM 1033; format: functional
[22] = tested on: Pseudomonas aeruginosa; assay: Minimum inhibitory concentration of Levofloxacin in presence at a concentration of 10 ug/mL against PAM 1032; format: functional
[23] = tested on: Pseudomonas aeruginosa; assay: Minimum inhibitory concentration of Levofloxacin in presence at a concentration of 10 ug/mL against PAM 1033; format: functional
[24] = Volume of synergy by MacSynergy II 3-D analysis
[25] = tested on: Pseudomonas aeruginosa; assay: Minimum inhibitory concentration of Levofloxacin in presence at a concentration of 2.5 ug/mL against PAM 1034; format: functional
[26] = tested on: Pseudomonas aeruginosa; assay: Minimum inhibitory concentration of Levofloxacin in presence at a concentration of 5 ug/mL against PAM 1032; format: functional
[27] = tested on: Pseudomonas aeruginosa; assay: Minimum inhibitory concentration of Levofloxacin in presence at a concentration of 5 ug/mL against PAM 1034; format: functional
[28] = tested on: Pseudomonas aeruginosa; assay: Minimum inhibitory concentration of Levofloxacin in presence at a concentration of 20 ug/mL against PAM 1033; format: functional
[29] = as §1
[30] = tested on: Pseudomonas aeruginosa; assay: Minimum inhibitory concentration of Levofloxacin in presence at a concentration of 40 ug/mL against PAM 1034.; format: functional
[31] = tested on: Pseudomonas aeruginosa; assay: Minimum inhibitory concentration of Levofloxacin in presence at a concentration of 10 ug/mL against PAM 1034.; format: functional
[32] = tested on: Pseudomonas aeruginosa; assay: Minimum inhibitory concentration of Levofloxacin in presence at a concentration of 2.5 ug/mL against PAM 1034.; format: functional
[33] = tested on: Pseudomonas aeruginosa; assay: Minimum inhibitory concentration of Levofloxacin in presence at a concentration of 0 ug/mL against PAM 1034.; format: functional
[34] = tested on: Pseudomonas aeruginosa; assay: Minimum inhibitory concentration of Levofloxacin in presence at a concentration of 50 ug/mL against PAM 1033.; format: functional
[35] = tested on: Pseudomonas aeruginosa; assay: Minimum inhibitory concentration of Levofloxacin in presence at a concentration of 2.50 ug/mL against PAM 1033.; format: functional
[36] = tested on: Pseudomonas aeruginosa; assay: Minimum inhibitory concentration of Levofloxacin in presence at a concentration of 1.25 ug/mL against PAM 1034.; format: functional
[37] = tested on: Pseudomonas aeruginosa; assay: Minimum inhibitory concentration of Levofloxacin in presence at a concentration of 20 ug/mL against PAM 1034.; format: functional
[38] = tested on: Pseudomonas aeruginosa; assay: Minimum inhibitory concentration of Levofloxacin in presence at a concentration of 10 ug/mL against PAM 1033.; format: functional
[39] = tested on: Pseudomonas aeruginosa; assay: Minimum inhibitory concentration of Levofloxacin in presence at a concentration of 5 ug/mL against PAM 1034.; format: functional
[40] = tested on: Pseudomonas aeruginosa; assay: Minimum inhibitory concentration of Levofloxacin in presence at a concentration of 20 ug/mL against PAM 1033.; format: functional
[41] = tested on: Pseudomonas aeruginosa; assay: Minimum Inhibitory concentration required to reduce the MIC of levofloxacin by 8-fold against PAM 1034.; format: functional
[42] = tested on: Pseudomonas aeruginosa; assay: Minimum Inhibitory concentration required to reduce the MIC of levofloxacin by 8-fold against PAM 1033.; format: functional
[43] = tested on: Pseudomonas aeruginosa; assay: Minimum inhibitory concentration of Levofloxacin in presence at a concentration of 40 ug/mL against PAM 1033.; format: functional

## C[C@H](N)C(=O)N[C@@H](CCCN)C(=O)Nc1ccc2ccccc2c1 (H-Ala-[Orn]-βNA)
[1]
  MPC8: 40 µg/mL
[2]
  VOLSYN: 486
[3]
  MIC: > 512 µg/mL

## NCCC[C@H](NC(=O)[C@@H](N)Cc1ccccc1)C(=O)Nc1ccc2ccccc2c1
[1]
  MPC8: 5 µg/mL
[2]
  VOLSYN: 1760
[3]
  MIC: 512 µg/mL (≈ 1270 µM)

## CN(C(=O)[C@@H](N)Cc1ccccc1)[C@@H](CCCN)C(=O)Nc1ccc2ccccc2c1
[1]
  MPC8: 5 µg/mL
[2]
  VOLSYN: 2825
[3]
  MIC: 256 µg/mL (≈ 612 µM)

## NCCC[C@H](NC(=O)[C@@H](N)CCc1ccccc1)C(=O)Nc1cnc2ccccc2c1
[4]
  MIC: 4 µg/mL (≈ 9.53 µM)
[1]
  MPC8: 5 µg/mL
[5]
  MIC: 4 µg/mL (≈ 9.53 µM)
[6]
  MIC: 0.5 µg/mL (≈ 1.19 µM)
[7]
  MIC: 0.125 µg/mL (≈ 0.298 µM)
[8]
  MIC: 1 µg/mL (≈ 2.38 µM)
[9]
  MIC: 4 µg/mL (≈ 9.53 µM)
[10]
  MIC: 0.125 µg/mL (≈ 0.298 µM)
[11]
  MIC: 0.5 µg/mL (≈ 1.19 µM)
[12]
  MIC: 2 µg/mL (≈ 4.77 µM)
[13]
  MIC: 0.125 µg/mL (≈ 0.298 µM)
[14]
  MIC: 0.06 µg/mL (≈ 0.143 µM)
[15]
  MIC: 0.125 µg/mL (≈ 0.298 µM)
[16]
  MIC: > 512 µg/mL
[17]
  MIC: 0.06 µg/mL (≈ 0.143 µM)
[18]
  MPC8: 5 µg/mL
[19]
  MPC8: 2.5 µg/mL
[20]
  MIC: 2 µg/mL (≈ 4.77 µM)
[21]
  MIC: 0.06 µg/mL (≈ 0.143 µM)
[22]
  MIC: 0.06 µg/mL (≈ 0.143 µM)
[23]
  MIC: 0.06 µg/mL (≈ 0.143 µM)
[24]
  VOLSYN: 2590
[25]
  MIC: 1 µg/mL (≈ 2.38 µM)
[26]
  MIC: 0.125 µg/mL (≈ 0.298 µM)
[27]
  MIC: 0.25 µg/mL (≈ 0.596 µM)
[28]
  MIC: 0.06 µg/mL (≈ 0.143 µM)

## N[C@@H](Cc1ccccc1)C(=O)N[C@@H](Cc1c[nH]cn1)C(=O)Nc1ccc2ccccc2c1 (H-Phe-His-βNA)
[1]
  MPC8: >40 µg/mL
[2]
  VOLSYN: 463
[3]
  MIC: > 512 µg/mL

## NCCC[C@H](NC(=O)[C@@H](N)CCc1ccccc1)C(=O)Nc1ccc2c(c1)CCC2
[1]
  MPC8: 2.5 µg/mL
[16]
  MIC: 256 µg/mL (≈ 627 µM)
[24]
  VOLSYN: 2220

## NCCC[C@H](NC(=O)[C@@H](N)Cc1ccc(F)cc1)C(=O)Nc1ccc2ccccc2c1
[1]
  MPC8: 5 µg/mL
[2]
  VOLSYN: 2343
[3]
  MIC: 512 µg/mL (≈ 1210 µM)

## NCCC[C@H](NC(=O)[C@@H](N)CCc1ccccc1)C(=O)Nc1ccc2ncccc2c1
[1]
  MPC8: 10 µg/mL
[29]
  VOLSYN: 2060
[16]
  MIC: > 512 µg/mL

## NCCC[C@H](NC(=O)[C@@H](N)CCc1ccccc1)C(=O)Nc1ccccc1
[1]
  MPC8: >40 µg/mL
[29]
  VOLSYN: 906
[16]
  MIC: > 512 µg/mL

## N=C(N)NCCC[C@H](NC(=O)[C@@H](N)Cc1ccccc1)C(=O)Nc1ccc2ccccc2c1 [PABETAN] (H-Phe-Arg-βNA)
[30]
  MIC: 0.03 µg/mL (≈ 0.0672 µM)
[31]
  MIC: 0.25 µg/mL (≈ 0.56 µM)
[32]
  MIC: 4 µg/mL (≈ 8.96 µM)
[1]
  MPC8: 10 µg/mL
[6]
  MIC: 1 µg/mL (≈ 2.24 µM)
[8]
  MIC: 2 µg/mL (≈ 4.48 µM)
[2]
  VOLSYN: 1962
[9]
  MIC: 4 µg/mL (≈ 8.96 µM)
[12]
  MIC: 4 µg/mL (≈ 8.96 µM)
[14]
  MIC: 0.06 µg/mL (≈ 0.134 µM)
[33]
  MIC: 4 µg/mL (≈ 8.96 µM)
[16]
  MIC: > 512 µg/mL
[17]
  MIC: 0.06 µg/mL (≈ 0.134 µM)
[34]
  MIC: 0.5 µg/mL (≈ 1.12 µM)
[20]
  MIC: 2 µg/mL (≈ 4.48 µM)
[35]
  MIC: 2 µg/mL (≈ 4.48 µM)
[36]
  MIC: 4 µg/mL (≈ 8.96 µM)
[37]
  MIC: 0.06 µg/mL (≈ 0.134 µM)
[22]
  MIC: 0.125 µg/mL (≈ 0.28 µM)
[38]
  MIC: 0.125 µg/mL (≈ 0.28 µM)
[39]
  MIC: 1 µg/mL (≈ 2.24 µM)
[26]
  MIC: 0.5 µg/mL (≈ 1.12 µM)
[40]
  MIC: 0.125 µg/mL (≈ 0.28 µM)
[41]
  MPC8: 10 µg/mL
[42]
  MPC8: 5 µg/mL
[43]
  MIC: 0.125 µg/mL (≈ 0.28 µM)

## NCCCC[C@H](NC(=O)[C@@H](N)Cc1ccccc1)C(=O)Nc1ccc2ccccc2c1
[1]
  MPC8: 10 µg/mL
[2]
  VOLSYN: 1390
[3]
  MIC: > 512 µg/mL

## NCCC[C@H](N)C(=O)Nc1ccc2ccccc2c1
[1]
  MPC8: >40 µg/mL
[2]
  VOLSYN: 183
[3]
  MIC: > 512 µg/mL

## NCCC[C@H](NC(=O)[C@@H](N)CCc1ccccc1)C(=O)Nc1ccc2ccccc2c1
[1]
  MPC8: 2.5 µg/mL
[2]
  VOLSYN: 2612
[3]
  MIC: 128 µg/mL (≈ 306 µM)
